Measurements from paper PMC12386934, “Characteristics and Potential of KSL, KSL-W, and Dadapin-1 Antimicrobial Peptides for Preventing Infections of Orthopedic Prosthetic Devices: Identifying the Most Robust Candidate” (International Journal of Molecular Sciences, 2025).
Where a SMILES comes first, the peptide text is derived from it.

Columns and labels:
[1] = tested on: E. faecalis cra4033 (EF 02); format: cell-based
Excerpt: (§1) The experimental scheme reported in Figure 6 helped to simplify and optimize the in vitro testing of the antibacterial activity of the different AMPs. The initial transparent microtiter plate for the determination of the minimum inhibitory concentration (MIC) by optical density (OD) measurement was conveniently used as a starting point not only for the alterative determination of the MIC by luminescence but also for the minimum bactericidal concentration (MBC) and for the minimum biofilm inhibitory concentration (MBIC), as explained below. For every test peptide, at least three independent experiments were performed on each bacterial strain per test condition (100% MHB and 20% MHB). The sole exception to this rule was when MIC values were on rare occasions found to be greater than 500 µg/mL. Under these circumstances, two consecutive experiments were performed to confirm the results. In this case, the antibacterial activity was considered insignificant and the third experiment was generally considered unnecessary.
(§2) The antibacterial properties of the test AMPs were assayed under two distinct conditions of bacterial culture: (i) with bacteria cultured in undiluted Mueller–Hinton II Broth (MHB II) and (ii) with bacteria cultured in diluted MHB II as earlier described in Campoccia et al.. Briefly, a few colonies of each bacterial strain, taken from overnight cultures on Mueller–Hinton Agar plates (MHA, PO50007A, ThermoScientific, Thermo Fisher Scientific, Segrate, Italy), were resuspended in Mueller–Hinton II Broth (MHB II, 24107, Liofilchem, Roseto degli Abruzzi, Italy), either undiluted or at a 20% dilution in deionized water. The concentration of bacteria was adjusted to approximately 10^8 CFU/mL, as estimated by optical density reading at 625 nm, using a Hewlett Packard G1103A spectrophotometer (Waldbronn, Germany). The bacterial suspension was further diluted 1:100 in 100% or 20% MHB II.
(§3) Serial 1:2 dilutions of all the test peptides were prepared in sterile deionized water starting from a stock solution of 1 mg/mL. Microtiter plates (96-Well CytoOne® Plate, CC7672-7596, Starlab S.r.l., Milano, Italy) were prepared by adding a volume of 100 µL of inoculum to 100 µL of treatment. Each AMP dilution was assayed in triplicate; each microplate included triplicate wells for the blank (100 µL of sterile distilled water and 100 µL of sterile MHB II), and 3 to 6 wells for reference control of 100% growth (100 µL of sterile deionized water and 100 µL of MHB II inoculated with the bacterium). Positive controls were performed in triplicate wells with 100 µL of a 10 mg/mL gentamicin solution (G1272, Sigma Aldrich, Milan, Italy) and with 100 µL of a solution containing 10,000 units/mL of penicillin and 10,000 µg/mL of streptomycin (penicillin–streptomycin, 15140-122, Life Technologies, Monza, Italy).
(§4) After a 1-day incubation at 37 °C, the MIC was determined by two distinct methods: (1) optical density measurement and (2) bioluminescence reading. In the first case, the optical density of the microtiter plates was read directly at a wavelength of 600 nm and the MIC was estimated from the curves obtained by plotting the OD measurements. For the bioluminescence reading, after gentle resuspension, 100 µL of each treated culture was transferred to a new 96-well non-treated plate (236105/237105, Life Technologies, Monza, Italy) and the metabolic activity was determined by the kit Bac-Titer Glo Microbial Cell Viability Assay (G8231, Promega Italia S.r.l, Milan, Italy). Optical density and bioluminescence were read by a Modulus II multifunction plate reader (Turner BioSystems, Sunnyvale, CA, USA) or, alternatively, by an Infinite M Plex (Tecan Group Ltd., Männedorf, Switzerland). As earlier described in [24], in the case of luminescence, the MIC was identified from the curves of growth inhibition as the first concentration leading to a 1-log reduction in bacterial growth (i.e., 90% growth inhibition). […]

[2] = tested on: S. epidermidis cra4029 (SE 02); format: cell-based
Excerpt: as §1, §2, §3, §4

[3] = tested on: E. coli cra4038 (EC); format: cell-based; conditions: cra4038 (EC)
Excerpt: as §1, §2, §3
(§5) The wells of the microplate, initially used for the determination of the MIC, were rinsed twice with 220 µL of phosphate-buffered solution (PBS) to remove loosely attached and planktonic bacteria. A total of 100 µL of fresh PBS and 100 µL of Bac-Titer Glo solution (G8231, Promega Italia S.r.l., Milan, Italy) were added to each well. After a 10 min incubation, a volume of 100 µL was transferred to a new microplate for luminescence determination as described above. As a general rule, the MBIC value was identified as the concentration at which a reduction of at least a log in the metabolic activity was observed.

[4] = tested on: E. faecalis cra4024 (EF 01); format: cell-based
Excerpt: as §1, §2, §3, §5

[5] = tested on: E. faecalis cra4033 (EF 02); format: cell-based; remark: listed apart in the source
Excerpt: as §1, §2, §3, §5

[6] = tested on: P. aeruginosa cra3840 (PA 02); format: cell-based; conditions: cra3840 (PA 02, 24 h)
Excerpt: as §1, §2, §3, §5

[7] = tested on: P. aeruginosa cra4004 (PA 01); format: cell-based
Excerpt: as §1, §2, §3, §5

[8] = tested on: S. aureus cra2198 (SA 02); format: cell-based; conditions: cra2198 (SA 02)
Excerpt: as §1, §2, §3, §5

[9] = tested on: S. aureus cra4030 (SA 01); format: cell-based; conditions: cra4030 (SA 01, 24 h)
Excerpt: as §1, §2, §3, §5

[10] = tested on: S. epidermidis cra4029 (SE 02); format: cell-based; remark: listed apart in the source
Excerpt: as §1, §2, §3, §5

[11] = tested on: S. epidermidis cra4034 (SE 01); format: cell-based; conditions: cra4034 (SE 01)
Excerpt: as §1, §2, §3, §5

[12] = cited from earlier work
Excerpt: In 2021, aiming at identifying AMPs for a possible application in the prevention or treatment of prosthetic orthopedic infections, our group conducted an extensive systematic review on known short-chain AMPs, primarily based on the Database of Antimicrobial Activity and Structure of Peptides (DBAASP). The choice of considering short-chain peptides was dictated by the potentially lower allergenic risk offered by small peptides. The query included all monomeric AMPs with a length spanning from 7 to 13 amino acids. The research results provided a list of 415 entries, which were then extend ...

CC(C)[C@H](NC(=O)[C@H](Cc1c[nH]c2ccccc12)NC(=O)[C@H](Cc1ccccc1)NC(=O)[C@@H](NC(=O)[C@@H](NC(=O)[C@H](CCCCN)NC(=O)[C@@H](N)CCCCN)C(C)C)C(C)C)C(=O)N[C@@H](CCCCN)C(=O)N[C@@H](Cc1ccccc1)C(=O)N[C@@H](CCCCN)C(=O)O [KSL-W] (H-KKVVFWVKFK-OH)
MIC [1]: 15.63 to 31.25 µg/mL
MIC [2]: 0.49 to 0.98 µg/mL
LR, Log10 reduction in bacterial metabolism for a given MBIC [3]: 3 LR
LR, Log10 reduction in bacterial metabolism for a given MBIC ([4]; cra4024 (EF 01)): 3 LR
MBIC ([4]; cra4024 (EF 01, 24 h)): 3.91 to 7.81 µg/mL
LR, Log10 reduction in bacterial metabolism for a given MBIC ([5]; cra4033 (EF 02)): 2 LR
MBIC ([5]; cra4033 (EF 02, 24 h)): 3.91 µg/mL
MBIC [6]: 31.25 µg/mL
LR, Log10 reduction in bacterial metabolism for a given MBIC [7]: 2 LR
LR, Log10 reduction in bacterial metabolism for a given MBIC [8]: 3 LR
MBIC [9]: 31.25 µg/mL
LR, Log10 reduction in bacterial metabolism for a given MBIC ([10]; cra4029 (SE 02)): 2 LR
MBIC ([10]; cra4029 (SE 02, 24 h)): 0.24 to 0.49 µg/mL
LR, Log10 reduction in bacterial metabolism for a given MBIC [11]: 3 LR
stability to enzymic activity such as trypsin-catalyzed cleavage [12]: greater stability
